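Test compounds were applied to cells in 96-well plates for 48 hours at 5 doses. GI50 marks 50% less growth.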 The source made the active and inactive calls. Cut-off read from the data, not from the text of the source: active = GI50 up to about 1.1 µM and inactive = higher.
How the values were obtained:
Assay in all cases: NCI-60 cell line screen, 48 h
SF-539 = tested on: SF-539
KM12 = tested on: KM12
HOP-62 = tested on: HOP-62
CAKI-1 = tested on: CAKI-1
PC-3 = tested on: PC-3
MDA-MB-435 = tested on: MDA-MB-435
BT-549 = tested on: BT-549
HL-60 = tested on: HL-60
SK-MEL-2 = tested on: SK-MEL-2
MDA-MB-231 = tested on: MDA-MB-231
ACHN = tested on: ACHN
M14 = tested on: M14
A498 = tested on: A498
RPMI-8226 = tested on: RPMI-8226
UO-31 = tested on: UO-31
HCT-116 = tested on: HCT-116
EKVX = tested on: EKVX
SW-620 = tested on: SW-620
NCI-H460 = tested on: NCI-H460
TK-10 = tested on: TK-10

| SMILES | GI50 (SF-539) | GI50 (KM12) | GI50 (HOP-62) | GI50 (CAKI-1) | GI50 (PC-3) | GI50 (MDA-MB-435) | GI50 (BT-549) | GI50 (HL-60) | GI50 (SK-MEL-2) | GI50 (MDA-MB-231) | GI50 (ACHN) | GI50 (M14) | GI50 (A498) | GI50 (RPMI-8226) | GI50 (UO-31) | GI50 (HCT-116) | GI50 (EKVX) | GI50 (SW-620) | GI50 (NCI-H460) | GI50 (TK-10) |
| --- | --- | --- | --- | --- | --- | --- | --- | --- | --- | --- | --- | --- | --- | --- | --- | --- | --- | --- | --- | --- |
| CCCCCc1cc2cc3c(c(O)c2c(=O)[nH]1)C1(CCC3)C(=O)c2c(O)ccc(O)c2C1=O | > 100 µM (inactive) | > 100 µM (inactive) | 83.9 µM (inactive) | > 100 µM (inactive) | > 100 µM (inactive) | > 100 µM (inactive) | > 100 µM (inactive) | > 100 µM (inactive) | 66.7 µM (inactive) | > 100 µM (inactive) | > 100 µM (inactive) | > 100 µM (inactive) | > 100 µM (inactive) | > 100 µM (inactive) | > 100 µM (inactive) | > 100 µM (inactive) | > 100 µM (inactive) | 56 µM (inactive) | > 100 µM (inactive) | 38.6 µM (inactive) |
| Cc1cc2c(cc1C)[n+]([O-])c(C(=O)/C=C/c1ccc3c(c1)OCO3)c(C)[n+]2[O-] | 56.4 µM (inactive) | > 100 µM (inactive) | 21 µM (inactive) | 61.1 µM (inactive) | > 100 µM (inactive) | > 100 µM (inactive) | 69.3 µM (inactive) | > 100 µM (inactive) | 27.9 µM (inactive) | > 48.9 µM (inactive) | 40.9 µM (inactive) | 98.9 µM (inactive) | 71.6 µM (inactive) | > 100 µM (inactive) | > 100 µM (inactive) | 53.8 µM (inactive) | > 70 µM (inactive) | > 100 µM (inactive) | > 91.8 µM (inactive) | 23.9 µM (inactive) |
| CC(NC(=O)OCc1ccccc1)NC(=O)OC(C)(C)C (stereo not given) | > 100 µM (inactive) | > 100 µM (inactive) | > 100 µM (inactive) | > 100 µM (inactive) | > 100 µM (inactive) | > 100 µM (inactive) | > 100 µM (inactive) | > 100 µM (inactive) | > 100 µM (inactive) | > 100 µM (inactive) | > 100 µM (inactive) | > 100 µM (inactive) | > 100 µM (inactive) | 51.6 µM (inactive) | > 100 µM (inactive) | > 100 µM (inactive) | > 100 µM (inactive) | > 100 µM (inactive) | 73.6 µM (inactive) | > 100 µM (inactive) |
| C=C[C@]1(C)CC[C@]2(C)C(CC[C@@]3(C)C2C[C@H](O)[C@H](O)[C@@]3(C)O)C1 (stereo not given in full) | > 100 µM (inactive) | > 100 µM (inactive) | > 100 µM (inactive) | > 100 µM (inactive) | > 100 µM (inactive) | > 100 µM (inactive) | > 100 µM (inactive) | > 100 µM (inactive) | > 100 µM (inactive) | > 100 µM (inactive) | > 100 µM (inactive) | > 100 µM (inactive) | > 100 µM (inactive) | > 100 µM (inactive) | > 100 µM (inactive) | > 100 µM (inactive) | > 100 µM (inactive) | > 100 µM (inactive) | > 100 µM (inactive) | > 100 µM (inactive) |
| C=Cc1ccccc1C1C(C(=O)OCC)=C(C)N=C2OC(C(=O)OC)C(=O)N21 (stereo not given) | > 100 µM (inactive) | > 100 µM (inactive) | > 100 µM (inactive) | > 100 µM (inactive) | > 100 µM (inactive) | > 100 µM (inactive) | > 100 µM (inactive) | 87.5 µM (inactive) | > 100 µM (inactive) | > 100 µM (inactive) | > 100 µM (inactive) | > 100 µM (inactive) | > 100 µM (inactive) | > 100 µM (inactive) | > 100 µM (inactive) | > 100 µM (inactive) | > 100 µM (inactive) | > 100 µM (inactive) | > 100 µM (inactive) | > 100 µM (inactive) |
| CCC1(OC(=O)CN2CCN(CCO)CC2)C(=O)OCc2c1cc1n(c2=O)Cc2cc3ccccc3nc2-1 (stereo not given) | 0.188 µM (active) | 0.457 µM (active) | 0.0867 µM (active) | 0.047 µM (active) | 0.405 µM (active) | 1.15 µM (inactive) | 0.736 µM (active) | 0.286 µM (active) | 4.25 µM (inactive) | 14.1 µM (inactive) | 0.0667 µM (active) | 0.265 µM (active) | 0.514 µM (active) | 0.962 µM (active) | 0.169 µM (active) | 0.417 µM (active) | 4.51 µM (inactive) | 0.0991 µM (active) | 0.0614 µM (active) | 8.49 µM (inactive) |
| C/C(=N\NC(=S)Nc1ccc([N+](=O)[O-])cc1)c1nc2cccnc2[nH]1 | 0.288 µM (active) | 0.873 µM (active) | 1.07 µM (active) | 1 µM (active) | 1.24 µM (inactive) | 1.34 µM (inactive) | 0.452 µM (active) | 0.652 µM (active) | 1.31 µM (inactive) | 1.31 µM (inactive) | 0.378 µM (active) | 1.26 µM (inactive) | 2.67 µM (inactive) | 1.87 µM (inactive) | 0.322 µM (active) | 0.515 µM (active) | 0.227 µM (active) | 0.906 µM (active) | 0.379 µM (active) | 0.327 µM (active) |
| COc1cc(O)c(C(=O)/C=C/c2ccccc2)c(OC)c1 [FLAVOKAWAIN B] | 3.78 µM (inactive) | 3.52 µM (inactive) | 12 µM (inactive) | 5.28 µM (inactive) | 6.1 µM (inactive) | 4.71 µM (inactive) | 4.47 µM (inactive) | 1.21 µM (inactive) | 4.62 µM (inactive) | 7.64 µM (inactive) | 8.73 µM (inactive) | 7.94 µM (inactive) | 4.43 µM (inactive) | 3.85 µM (inactive) | 5.83 µM (inactive) | 5.64 µM (inactive) | 10.4 µM (inactive) | 3.85 µM (inactive) | 3.54 µM (inactive) | 6.55 µM (inactive) |
| CC[C@@]1(OP(=O)(O)O)C(=O)OCc2c1cc1n(c2=O)Cc2cc3ccccc3nc2-1 | 0.109 µM (active) | 0.398 µM (active) | 0.253 µM (active) | 0.0467 µM (active) | 0.32 µM (active) | 0.339 µM (active) | 0.201 µM (active) | 0.0306 µM (active) | 2.94 µM (inactive) | 3.37 µM (inactive) | 0.0405 µM (active) | 0.0776 µM (active) | 0.0817 µM (active) | 0.0718 µM (active) | 0.0836 µM (active) | 0.157 µM (active) | 1.12 µM (inactive) | 0.403 µM (active) | 0.0308 µM (active) | 2.55 µM (inactive) |
| CC1(C)C2CCC(CN)(C2)C1N (stereo not given) | > 100 µM (inactive) | > 100 µM (inactive) | > 100 µM (inactive) | > 100 µM (inactive) | > 100 µM (inactive) | > 100 µM (inactive) | > 100 µM (inactive) | > 100 µM (inactive) | > 100 µM (inactive) | > 100 µM (inactive) | > 100 µM (inactive) | > 100 µM (inactive) | > 100 µM (inactive) | > 100 µM (inactive) | > 100 µM (inactive) | > 100 µM (inactive) | > 100 µM (inactive) | > 100 µM (inactive) | 4.49 µM (inactive) | > 100 µM (inactive) |
